Read-outs that look alike come from different tables or passages of the source.
Tests used:
[1] = 20 mcg/mL, tromethamine 10 mg/mL, 5.4 mg/mL sodium chloride in water
Method: (§1) Separate samples containing 20 mcg/mL levothyroxine sodium, 10 mg/mL tromethamine, 5.4 mg/mL sodium chloride, and sodium iodide at a concentration of 280 mcg/mL, 140 mcg/mL, or 6 mcg/mL in water were adjusted to various pH levels. 5 mL of each sample was filled into 10 cc flint molded vials, and the vials were stoppered with 20 mm stoppers under nitrogen.
The samples also were stored at temperatures of 25° C. or 40° C. for 2M or 4M prior to analysis by HPLC.
The HPLC conditions were as follows: • Column: Phenomenex Kinetex 2.6 μm C18, 4.6×150 mm HPLC column • Mobile Phase A: 0.05 M Sulfamic Acid, pH 2.0 • Mobile Phase B: Acetonitrile • Diluent: 10% Mobile Phase A in Methanol: Acetonitrile: Mobile Phase A (1000 mL: 300 mL: 700 mL) • Column temperature: 27° C. • Flow rate: 1.2 mL/min • Injection volume: 50 μL • Autosampler temperature: 25° C. • Detection: UV at 225 nm • Separation mode: Gradient Gradient Program: […]

[2] = 4 W, 20 mcg/mL, tromethamine 10 mg/mL, 5.4 mg/mL sodium chloride in water
Method: as §1
The HPLC conditions were as follows: • Column: ACE Excel 3 C18-PFP, 4.6×150 mm HPLC column • Mobile Phase A: Sodium heptanesulfonate/Acetonitrile/Water/Methanol/H3PO4 (4.0 g/800 mL/1600 mL/1600 mL/4.0 mL) • Mobile Phase B: Sodium heptanesulfonate/Acetonitrile/Water/Methanol/H3PO4 (4.0 g/2000 mL/200 mL/1800 mL/4.0 mL) • Diluent: 0.01 N NaOH • Column temperature: 25° C. • Flow rate: 1.5 mL/min • Injection volume: 80 μL • Autosampler temperature: 5° C. • Detection: UV at 225 nm • Separation mode: Gradient Gradient Program: […]

[3] = 25° C., 2 M, NaI 6 mcg/mL, pH 10.5
[4] = 25° C., 2 M, NaI 140 mcg/mL, pH 9.5
[5] = 25° C., 2 M, NaI 140 mcg/mL, pH 10
[6] = 25° C., 2 M, NaI 140 mcg/mL, pH 10.5
[7] = 25° C., 2 M, NaI 280 mcg/mL, pH 9.5
[8] = 25° C., 2 M, NaI 280 mcg/mL, pH 10
[9] = 25° C., 2 M, NaI 280 mcg/mL, pH 10.5
[10] = 25° C., 4 M, NaI 6 mcg/mL, pH 10.5
[11] = 25° C., 4 M, NaI 140 mcg/mL, pH 9.5
[12] = 25° C., 4 M, NaI 140 mcg/mL, pH 10
[13] = 25° C., 4 M, NaI 140 mcg/mL, pH 10.5
[14] = 25° C., 4 M, NaI 280 mcg/mL, pH 9.5
[15] = 25° C., 4 M, NaI 280 mcg/mL, pH 10
[16] = 25° C., 4 M, NaI 280 mcg/mL, pH 10.5
[17] = 40° C., 2 M, NaI 6 mcg/mL, pH 10.5
[18] = 40° C., 2 M, NaI 140 mcg/mL, pH 9.5
[19] = 40° C., 2 M, NaI 140 mcg/mL, pH 10
[20] = 40° C., 2 M, NaI 140 mcg/mL, pH 10.5
[21] = 40° C., 2 M, NaI 280 mcg/mL, pH 9.5
[22] = 40° C., 2 M, NaI 280 mcg/mL, pH 10
[23] = 40° C., 2 M, NaI 280 mcg/mL, pH 10.5
[24] = 40° C., 4 M, NaI 6 mcg/mL, pH 10.5
[25] = 40° C., 4 M, NaI 140 mcg/mL, pH 9.5
[26] = 40° C., 4 M, NaI 140 mcg/mL, pH 10
[27] = 40° C., 4 M, NaI 140 mcg/mL, pH 10.5
[28] = 40° C., 4 M, NaI 280 mcg/mL, pH 9.5
[29] = 40° C., 4 M, NaI 280 mcg/mL, pH 10
[30] = 40° C., 4 M, NaI 280 mcg/mL, pH 10.5
[31] = 25° C., NaI 140 mcg/mL, pH 10.5
[32] = 25° C., NaI 280 mcg/mL, pH 10.5
[33] = 55° C., NaI 140 mcg/mL, pH 10.5
[34] = 55° C., NaI 280 mcg/mL, pH 10.5

SMILES: N[C@@H](Cc1cc(I)c(Oc2cc(I)c(O)c(I)c2)c(I)c1)C(=O)[O-].[Na+] [Levothyroxine Na, 4-(4-hydroxy-3,5-diiodophenoxy)-3,5-diiodo-L-phenylalanine sodium]
- % AOII [1, 3]: 0.46%
- % total impurities [1, 3]: 1.85%
- % AOII [1, 4]: 0.09%
- % Liothyronine [1, 4]: 0.29%
- % total impurities [1, 4]: 0.76%
- % AOII [1, 5]: 0.10%
- % total impurities [1, 5]: 0.77%
- % AOII [1, 6]: 0.12%
- % Liothyronine [1, 6]: 0.24%
- % total impurities [1, 6]: 0.88%
- % AOII [1, 7]: 0.11%
- % total impurities [1, 7]: 0.81%
- % AOII [1, 8]: 0.12%
- % Liothyronine [1, 8]: 0.24%
- % total impurities [1, 8]: 0.8%
- % AOII [1, 9]: 0.11%
- % Liothyronine [1, 9]: 0.23%
- % total impurities [1, 9]: 0.85%
- % AOII [1, 10]: 1.21%
- % total impurities [1, 10]: 2.81%
- % AOII [1, 11]: 0.18%
- % Liothyronine [1, 11]: 0.35%
- % total impurities [1, 11]: 1.00%
- % AOII [1, 12]: 0.17%
- % total impurities [1, 12]: 0.93%
- % AOII [1, 13]: 0.17%
- % total impurities [1, 13]: 0.94%
- % AOII [1, 14]: 2.14%
- % Liothyronine [1, 14]: 0.35%
- % total impurities [1, 14]: 3.26%
- % AOII [1, 15]: 0.17%
- % total impurities [1, 15]: 0.93%
- % AOII [1, 16]: 0.11%
- % total impurities [1, 16]: 1.04%
- % AOII [1, 17]: 0.91%
- % Liothyronine [1, 17]: 0.43%
- % total impurities [1, 17]: 2.5%
- % AOII [1, 18]: 0.14%
- % Liothyronine [1, 18]: 0.88%
- % total impurities [1, 18]: 1.42%
- % AOII [1, 19]: 0.14%
- % Liothyronine [1, 19]: 0.55%
- % total impurities [1, 19]: 1.18%
- % AOII [1, 20]: 0.15%
- % Liothyronine [1, 20]: 0.41%
- % total impurities [1, 20]: 1.09%
- % AOII [1, 21]: 0.13%
- % Liothyronine [1, 21]: 0.9%
- % total impurities [1, 21]: 1.56%
- % AOII [1, 22]: 0.13%
- % Liothyronine [1, 22]: 0.55%
- % total impurities [1, 22]: 1.2%
- % AOII [1, 23]: 0.17%
- % Liothyronine [1, 23]: 0.39%
- % total impurities [1, 23]: 1.07%
- % AOII [1, 24]: 1.45%
- % Liothyronine [1, 24]: 0.6%
- % total impurities [1, 24]: 3.51%
- % AOII [1, 25]: 0.72%
- % Liothyronine [1, 25]: 1.3%
- % total impurities [1, 25]: 2.84%
- % AOII [1, 26]: 0.92%
- % Liothyronine [1, 26]: 0.86%
- % total impurities [1, 26]: 2.73%
- % AOII [1, 27]: 0.69%
- % Liothyronine [1, 27]: 0.59%
- % total impurities [1, 27]: 2.14%
- % AOII [1, 28]: 0.52%
- % Liothyronine [1, 28]: 1.23%
- % total impurities [1, 28]: 2.76%
- % AOII [1, 29]: 1.38%
- % Liothyronine [1, 29]: 0.84%
- % total impurities [1, 29]: 3.23%
- % AOII [1, 30]: 1.07%
- % Liothyronine [1, 30]: 0.58%
- % total impurities [1, 30]: 2.72%
- % AOII ([2]; 25° C., NaI 6 mcg/mL, pH 10.5): 0.33%
- % total impurities ([2]; 25° C., NaI 6 mcg/mL, pH 10.5): 1.9%
- % AOII ([2]; 25° C., NaI 140 mcg/mL, pH 9.5): 0.52%
- % total impurities ([2]; 25° C., NaI 140 mcg/mL, pH 9.5): 1.51%
- % AOII ([2]; 25° C., NaI 140 mcg/mL, pH 10): 0.55%
- % total impurities ([2]; 25° C., NaI 140 mcg/mL, pH 10): 1.64%
- % AOII [2, 31]: 0.6%
- % total impurities [2, 31]: 1.75%
- % AOII ([2]; 25° C., NaI 280 mcg/mL, pH 9.5): 0.56%
- % total impurities ([2]; 25° C., NaI 280 mcg/mL, pH 9.5): 1.58%
- % AOII ([2]; 25° C., NaI 280 mcg/mL, pH 10): 0.55%
- % total impurities ([2]; 25° C., NaI 280 mcg/mL, pH 10): 1.61%
- % AOII [2, 32]: 0.57%
- % total impurities [2, 32]: 1.66%
- % AOII ([2]; 55° C., NaI 6 mcg/mL, pH 10.5): 0.99%
- % total impurities ([2]; 55° C., NaI 6 mcg/mL, pH 10.5): 3.5%
- % AOII ([2]; 55° C., NaI 140 mcg/mL, pH 9.5): 0.59%
- % total impurities ([2]; 55° C., NaI 140 mcg/mL, pH 9.5): 3.6%
- % AOII ([2]; 55° C., NaI 140 mcg/mL, pH 10): 0.61%
- % total impurities ([2]; 55° C., NaI 140 mcg/mL, pH 10): 2.86%
- % AOII [2, 33]: 0.53%
- % total impurities [2, 33]: 2.49%
- % AOII ([2]; 55° C., NaI 280 mcg/mL, pH 9.5): 0.53%
- % total impurities ([2]; 55° C., NaI 280 mcg/mL, pH 9.5): 3.24%
- % AOII ([2]; 55° C., NaI 280 mcg/mL, pH 10): 0.54%
- % total impurities ([2]; 55° C., NaI 280 mcg/mL, pH 10): 2.76%
- % AOII [2, 34]: 0.53%
- % total impurities [2, 34]: 2.43%
